Results: patent publication US6407205B1, “FSH-releasing peptides” (Board of Supervisors of Louisiana State University and …, priority 1997, dated 2002)
Entries after “also recorded” stand apart in the source; their conditions may differ. Like-named read-outs stand apart in the source and are kept apart here. [ ]: non-standard residue; d: D form. pGlu = O=C1CC[C@@H](C(=O)O)N1

Assays:
[1] = system: FSH release from hemi-anterior pituitaries of adult male rats; experiment: FSH release in vitro, incubation with hemi-anterior pituitaries of male rats (RIA); assay type: cell-based, rat; conditions: for FSH (ng/ml) / FSH: 3 hr incubation
Protocol: (§1) Adult male and female Sprague-Dawley rats (Holtzmann, Madison, Wis.; 200-250 g) were housed two per cage under controlled conditions of temperature (23-25° C.) and lighting (on from 0500 to 1700 hr). The animals had free access to a pellet diet and to tap water.
(§2) After acclimatization for 5 or more days in the vivarium, male rats were killed by decapitation. Following removal of the posterior lobe, the anterior pituitary (AP) was bisected longitudinally, and each AP was incubated in a tube containing 0.5 ml Krebs-Ringer bicarbonate (5 mM ascorbic acid; pH 7.4) buffer (KRB) in an atmosphere of 95% O2/5% CO2 in a Dubnoff shaker (50 cycles per min) for a period of 60 min. Following this pre-incubation period, the APs were incubated for 3 hr in fresh KRB buffer alone (control), or in KRB containing one of various concentrations of synthetic mammalian (m)-LHRH, l-LHRH-III, l-LHRH-I, chicken (c)-LHRH-II, or salmon (s)-LHRH. The medium was then aspirated, and was stored frozen at −20° C. until radio-immunoassays (RIA) for FSH and LH were conducted. FSH and LH were measured using kits supplied by the National Institute of Arthritis Digestive Diabetes and Kidney Disease; hormone values were expressed in terms of NIH-rFSH-RP-2 and NIH-rLH-RP-3 standards. The experiments were repeated twice. The inter- and intra-assay coefficients of variation for FSH assays were 7.5% and 5.2%, respectively; and were 6.5% and 4.8% for LH assays.

[2] = system: LH release from hemi-anterior pituitaries of adult male rats; experiment: LH release in vitro, incubation with hemi-anterior pituitaries of male rats (RIA); assay type: cell-based, rat; conditions: for LH (ng/ml) / LH: 3 hr incubation
Protocol: as §1, §2

[3] = system: selective FSH-releasing activity; experiment: In vivo screening of known LHRH's from various species for selective FSH-releasing activity; conditions: unpublished data of the applicant's laboratory
Text: Our laboratory also screened known LHRH's from various species for selective FSH-releasing activity; and we also evaluated the activity of 25 analogs of LHRH in in vivo assays.

plasma FSH = experiment: FSH release in vivo, ovariectomized estrogen/progesterone-treated female rats, intravenous injection; parameters: species or system rat; conditions: for Change in FSH from baseline, 10 minutes in post-injection (ng/ml): 10 minutes post-injection, saline −3.85 ± 0.82
Protocol: as §1
(§3) Female rats were ovariectomized under anesthesia with isoflurane 4 weeks prior to the in vivo experiments. Three days before blood sampling, each ovariectomized rat was injected subcutaneously with 50 μg estradiol benzoate (Sigma Chemical Co., St. Louis, Mo.) dissolved in 0.1 ml sesame oil, and 25 mg progesterone (Eli Lilly, Indianapolis, Ind.) dissolved in 0.5 ml sesame oil. One day prior to testing, each animal was implanted with a jugular-atrial catheter. On the morning of testing, polyethylene tubing (PE-50) was connected to the distal end of the jugular-atrial catheter on the rat's dorsum to facilitate blood sampling and intravenous injection. Animals were acclimatized one hour before initial blood samples were taken. Heparinized blood samples ([…]) were collected just before, and at 10, 30, and 60 minutes after injection of 0.5 ml isotonic saline or l-LHRH-III (10 or 100 pmole) in 0.5 ml isotonic saline. After removal of each blood sample, an equal volume of isotonic saline was administered to maintain blood volume.

plasma LH = experiment: LH release in vivo, ovariectomized estrogen/progesterone-treated female rats, intravenous injection; parameters: species or system rat; conditions: for Change in LH from baseline, 10 minutes post-injection: saline −0.070 ± 0.122
Protocol: as §1, §3

[4] = system: Petromryzon marinus (lamprey) ovaries; conditions: Sower et al., Endocrinology 1993; cited from earlier work
FSH or LH release = conditions: Yu et al., Brain Res. Bull. 1990; cited from earlier work
[5] = Table 4, 10^−6M, KRB control 157.5 ± 13.2
[6] = Table 4, 10^−7M, KRB control 157.5 ± 13.2
[7] = Table 4, 10^−8M, KRB control 157.5 ± 13.2
[8] = Table 5, 10^−6M, KRB control 149.3 ± 17.0
[9] = Table 5, 10^−7M, KRB control 149.3 ± 17.0
[10] = Table 5, 10^−8M, KRB control 149.3 ± 17.0
[11] = Table 2, 10^−5M, KRB control 97.7 ± 20.4
[12] = Table 2, 10^−6M, KRB control 97.7 ± 20.4
[13] = Table 3, 10^−5M, KRB control 139.3 ± 16.9
[14] = Table 3, 10^−6M, KRB control 139.3 ± 16.9
[15] = 10 or 100 pmole intravenous, versus saline control

pGlu-His-Trp-Ser-His-Gly-Trp-Tyr-Pro-Gly-NH2 (XHWSHGWYPX; HELM PEPTIDE1{[Glp].H.W.S.H.G.W.Y.P.G.[am]}$$$$V2.0; SMILES NC(=O)CNC(=O)[C@@H]1CCCN1C(=O)[C@H](Cc1ccc(O)cc1)NC(=O)[C@H](Cc1c[nH]c2ccccc12)NC(=O)CNC(=O)[C@H](Cc1c[nH]cn1)NC(=O)[C@H](CO)NC(=O)[C@H](Cc1c[nH]c2ccccc12)NC(=O)[C@H](Cc1c[nH]cn1)NC(=O)[C@@H]1CCC(=O)N1) [c-LHRH-II, reference compound]
FSH release in vitro (result in words) [1]: low potency
FSH (ng/ml) [1, 5]: ***263.7 ± 17.8 ng/ml
FSH [1, 6]: 209.3 ± 44.0 ng/mL
FSH [1, 7]: 123.7 ± 18.0 ng/mL
concentration significantly increasing FSH release ([1]; Table 4 experiment, highest concentration tested): 10^−6 M
LH release in vitro (result in words) [2]: equivalent LH-releasing activity to that of m-LHRH
LH (ng/ml) [2, 8]: *239.0 ± 31.7 ng/ml
LH (ng/ml) [2, 9]: *216.3 ± 17.7 ng/ml
LH (ng/ml) [2, 10]: *199.3 ± 13.6 ng/ml
LH release in vitro (result in words) ([2]; listed as Chicken (c) LHRH-II): stimulated LH release
selectivity for FSH release in vivo (result in words) [3]: slight selectivity for FSH release
selectivity for FSH release in vivo (result in words) ([3]; listed as chicken (c) LHRH-II): slightly preferential FSH-releasing activity in vivo

pGlu-His-Trp-Ser-His-Asp-Trp-Lys-Pro-Gly-NH2 (XHWSHDWKPX; pyroGlu; C-terminal amide) [l-LHRH-III]
FSH release in vitro (result in words) [1]: approximately equipotent toward releasing FSH
FSH (ng/ml) ([1]; Table 2, 10^−4M, KRB control 97.7 ± 20.4): ****368.6 ± 40.9 ng/ml
FSH (ng/ml) [1, 11]: **283.0 ± 60.8 ng/ml
FSH (ng/ml) [1, 12]: **278.2 ± 40.9 ng/ml
FSH (ng/ml) ([1]; Table 2, 10^−7M, KRB control 97.7 ± 20.4): ***213.0 ± 17.9 ng/ml
FSH (ng/ml) ([1]; Table 2, 10^−8M, KRB control 97.7 ± 20.4): **255.7 ± 42.4 ng/ml
FSH (ng/ml) ([1]; Table 2, 10^−9M, KRB control 97.7 ± 20.4): *228.3 ± 52.5 ng/ml
concentration of maximal effect on FSH release ([1]; Table 2 experiment, levelled off through 10^−4 M): about 10^−6 M
minimal effective concentration (MEC) for FSH release ([1]; Table 2 experiment, lowest concentration tested): ≤ 10^−9 M
FSH [1, 5]: 215.0 ± 38.0 ng/mL
FSH (ng/ml) [1, 6]: *203.2 ± 16.4 ng/ml
FSH (ng/ml) [1, 7]: *249.3 ± 31.3 ng/ml
FSH ([1]; Table 4, 10^−9M, KRB control 157.5 ± 13.2): 196.3 ± 21.2 ng/mL
MEC for a statistically significant release of FSH relative to c-LHRH-II ([1]; Table 4 experiment): two orders of magnitude lower
LH release in vitro (result in words) [2]: much weaker effect on LH release; also recorded: no LH-releasing activity
LH (ng/ml) ([2]; Table 3, 10^−4M, KRB control 139.3 ± 16.9): **236.6 ± 19.3 ng/ml
LH (ng/ml) [2, 13]: *202.9 ± 31.2 ng/ml
LH (ng/ml) [2, 14]: *233.6 ± 33.8 ng/ml
LH ([2]; Table 3, 10^−7M, KRB control 139.3 ± 16.9): 179.9 ± 28.4 ng/mL
LH ([2]; Table 3, 10^−8M, KRB control 139.3 ± 16.9): 165.7 ± 26.6 ng/mL
LH ([2]; Table 3, 10^−9M, KRB control 139.3 ± 16.9): 171.8 ± 27.3 ng/mL
concentrations active on LH release ([2]; Table 3 experiment): 10^−6-10^−4 M
LH [2, 8]: 176.0 ± 9.3 ng/mL
LH [2, 9]: 182.7 ± 13.7 ng/mL
LH [2, 10]: 163.2 ± 6.5 ng/mL
LH ([2]; Table 5, 10^−9M, KRB control 149.3 ± 17.0): 158.7 ± 10.2 ng/mL
Change in FSH from baseline, 10 minutes in post-injection (ng/ml) (plasma FSH; 10 pmole intravenous): **−0.75 ± 0.37 ng/ml
Change in FSH from baseline, 10 minutes in post-injection (ng/ml) (plasma FSH; 100 pmole intravenous): **−0.43 ± 0.61 ng/ml
FSH release in vivo (result in words) (plasma FSH; [15]): increase in FSH in vivo (P<0.01) within ten minutes; also recorded: highly significant increase in plasma FSH 10 minutes after injection, an effect that vanished by 30 minutes post-injection; also recorded: slightly greater effect at 10 minutes that was maintained 30 minutes after injection; also recorded: caused the release of FSH in vivo, but not LH
Change in LH from baseline, 10 minutes post-injection (plasma LH; 10 pmole intravenous): -0.022 ± 0.078 ng/mL
Change in LH from baseline, 10 minutes post-injection (plasma LH; 100 pmole intravenous): 0.097 ± 0.077 ng/mL
LH release in vivo (result in words) (plasma LH; [15]): no significant increase in LH; also recorded: Neither the 10 pmole nor the 100 pmole dose of l-LHRH-III produced a statistically significant difference in LH levels
estradiol and progesterone release from lamprey ovaries (result in words) [4]: stimulated estradiol and progesterone release

pGlu-His-Trp-Ser-Tyr-Gly-Trp-Leu-Pro-Gly-NH2 (XHWSYGWLPX; HELM PEPTIDE1{[Glp].H.W.S.Y.G.W.L.P.G.[am]}$$$$V2.0; SMILES CC(C)C[C@H](NC(=O)[C@H](Cc1c[nH]c2ccccc12)NC(=O)CNC(=O)[C@H](Cc1ccc(O)cc1)NC(=O)[C@H](CO)NC(=O)[C@H](Cc1c[nH]c2ccccc12)NC(=O)[C@H](Cc1c[nH]cn1)NC(=O)[C@@H]1CCC(=O)N1)C(=O)N1CCC[C@H]1C(=O)NCC(N)=O) [s-LHRH, reference compound]
FSH [1, 5]: 203.2 ± 39.2 ng/mL
FSH (ng/ml) [1, 6]: *233.0 ± 37.4 ng/ml
FSH release in vitro (result in words) ([1]; listed as Salmon (s)-LHRH): stimulated the release of both FSH and LH
FSH release in vitro (result in words) ([1]; listed as Salmon LHRH): low potency
LH release in vitro (result in words) [2]: stimulated the release of both FSH and LH
LH [2, 8]: 186.2 ± 13.6 ng/mL
LH (ng/ml) [2, 9]: *230.8 ± 38.8 ng/ml

[pGlu]HWSLEWKPG-NH2 [l-LHRH-I, reference compound]
FSH release in vitro (result in words) [1]: small but statistically significant release of FSH; also recorded: minimal potency to release either FSH or LH
FSH (ng/ml) [1, 11]: **178.2 ± 17.0 ng/ml
FSH (ng/ml) [1, 12]: *164.0 ± 29.3 ng/ml
LH release in vitro (result in words) [2]: inactive; also recorded: minimal potency to release either FSH or LH
LH [2, 13]: 120.4 ± 8.1 ng/mL
LH [2, 14]: 134.1 ± 23.2 ng/mL
activity in releasing FSH or LH in rats (result in words) (FSH or LH release): relatively low activity in releasing either FSH or LH
